Results from patent US20120021010A1, “ANTIPLATELET AGENT AND METHODS OF USING THE SAME” (University of Calcutta, priority 2010, published 2012).

Tested on: platelets
Experiment: ADP-induced platelet aggregation, chronolog optical aggregometry
Format: cell-based, human
Settings: platelets of patient treated with clopidogrel; inset of FIG. 3C
Description: In this example, platelet aggregation in the presence of SPIONs and various agonists was examined. The study was carried out using chronolog optical aggregometry.
FIGS. 2A and 2B respectively represent aggregometric results in presence of the agonists arachidonic acid (0.5 mM) and ADP (10 μM). Arachidonic acid is the main target for the antiplatelet drug aspirin and ADP is the main target for the antiplatelet drug clopidogrel. […] Thus, SPIONs cause no change in ADP- and arachidonic acid-induced aggregation of platelets from normal healthy individuals. The 85% to 95% aggregation increase in FIG. 2B can be ignored as the fractional increase is insignificant.

COC(=O)[C@H](c1ccccc1Cl)N1CCc2sccc2C1 [clopidogrel]
ADP-induced platelet aggregation in a patient treated with clopidogrel: ADP cannot induce aggregation
